Calls of active or inactive are those of the source.
Assays:
Format in all cases: functional, organism-based
[1] = tested on: Streptococcus mutans; test: Antimicrobial activity against Streptococcus mutans
[2] = tested on: Bacillus subtilis; test: Antimicrobial activity against Bacillus subtilis
[3] = tested on: Cutibacterium acnes; test: Antimicrobial activity against Propionibacterium acnes
[4] = tested on: Corynebacterium ammoniagenes; test: Antimicrobial activity against Brevibacterium ammoniagenes
[5] = tested on: Staphylococcus aureus; test: Antimicrobial activity against Staphylococcus aureus

Measured: Activity

CC(C)=CCC/C(C)=C/[C@@H](O)C/C(C)=C/CC/C(C)=C/CO
active: all assays above

CC(C)=CCC/C(C)=C/[C@H](O)C/C(C)=C/CC/C(C)=C/CO
active: all assays above

Reference: ChEMBL document CHEMBL1150083, “The Racemization of Crinitol. Resolution of Crinitol and of 3-Nonen-2-ol Enantiomers by Recycle-HPLC, via MTPA Esters” (J Nat Prod, 1995)
